Source: ChEMBL document CHEMBL5325426, “Structure-based discovery of potent USP28 inhibitors derived from Vismodegib” (Eur J Med Chem, 2023)
Active and inactive are the calls of the source. The rule behind the calls is not given here.

Assays:
[1] = molecular target: T1, Ubiquitin carboxyl-terminal hydrolase isozyme L3 (Homo sapiens) (UniProt P15374); test: Inhibition of UCHL3 (unknown origin) expressed in Escherichia coli BL21 (DE3) using Ub-AMC as substrate at 5 uM by fluorescence based analysis
T1 sequence (whole entry): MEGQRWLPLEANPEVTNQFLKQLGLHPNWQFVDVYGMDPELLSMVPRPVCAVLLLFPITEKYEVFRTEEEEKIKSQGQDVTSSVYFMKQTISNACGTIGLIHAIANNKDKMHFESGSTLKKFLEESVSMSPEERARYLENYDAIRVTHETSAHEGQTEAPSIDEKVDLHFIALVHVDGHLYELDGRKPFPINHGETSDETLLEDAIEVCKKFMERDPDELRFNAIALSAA

LS174T [2] = test: Antiproliferative activity against human LS174T cells assessed as effect on Bcl-2 protein level at 20 to 60 uM incubated for 1 day by western blotting analysis; format: functional, cell-based; conditions: dose 20-60 µM
[3] = molecular target: T2, Ubiquitin carboxyl-terminal hydrolase 28 (Homo sapiens, UniProt Q96RU2); test: Inhibition of USP28 (149 to 703 residues) (unknown origin) expressed in Escherichia coli BL21 (DE3) using Ub-AMC as substrate by fluorescence based analysis
T2 sequence (Q96RU2 whole entry): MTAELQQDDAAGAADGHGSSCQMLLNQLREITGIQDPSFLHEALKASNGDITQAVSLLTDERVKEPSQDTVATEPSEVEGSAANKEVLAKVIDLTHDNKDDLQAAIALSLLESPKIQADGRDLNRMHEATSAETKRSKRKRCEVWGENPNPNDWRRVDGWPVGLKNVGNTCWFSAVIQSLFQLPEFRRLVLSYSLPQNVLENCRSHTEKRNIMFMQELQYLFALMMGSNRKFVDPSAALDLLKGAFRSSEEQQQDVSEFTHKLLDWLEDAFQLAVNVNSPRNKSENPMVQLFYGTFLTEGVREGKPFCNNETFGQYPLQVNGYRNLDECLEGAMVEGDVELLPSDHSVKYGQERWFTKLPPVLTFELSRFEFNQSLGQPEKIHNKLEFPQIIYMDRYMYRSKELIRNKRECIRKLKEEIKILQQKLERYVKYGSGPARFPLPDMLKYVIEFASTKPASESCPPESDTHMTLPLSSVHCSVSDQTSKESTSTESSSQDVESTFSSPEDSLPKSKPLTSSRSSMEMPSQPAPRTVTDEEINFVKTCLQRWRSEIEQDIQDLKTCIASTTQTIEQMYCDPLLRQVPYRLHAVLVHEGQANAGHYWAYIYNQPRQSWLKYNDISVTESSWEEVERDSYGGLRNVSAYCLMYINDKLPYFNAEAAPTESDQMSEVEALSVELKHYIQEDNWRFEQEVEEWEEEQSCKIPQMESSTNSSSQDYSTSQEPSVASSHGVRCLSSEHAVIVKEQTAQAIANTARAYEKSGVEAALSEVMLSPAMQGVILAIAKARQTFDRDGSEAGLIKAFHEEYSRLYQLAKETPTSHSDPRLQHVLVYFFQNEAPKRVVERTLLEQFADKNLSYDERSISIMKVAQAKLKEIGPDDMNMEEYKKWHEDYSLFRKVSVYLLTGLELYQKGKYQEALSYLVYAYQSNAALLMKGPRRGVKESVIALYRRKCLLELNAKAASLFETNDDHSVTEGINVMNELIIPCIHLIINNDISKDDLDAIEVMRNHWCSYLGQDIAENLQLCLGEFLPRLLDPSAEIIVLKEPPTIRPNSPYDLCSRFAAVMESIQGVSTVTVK

[4] = molecular target: T3, Ubiquitin carboxyl-terminal hydrolase 2 (Homo sapiens) (UniProt O75604); test: Inhibition of USP2 (258 to 605 residues) (unknown origin) expressed in Escherichia coli BL21 (DE3) using Ub-AMC as substrate at 5 uM by fluorescence based analysis
T3 sequence (whole entry): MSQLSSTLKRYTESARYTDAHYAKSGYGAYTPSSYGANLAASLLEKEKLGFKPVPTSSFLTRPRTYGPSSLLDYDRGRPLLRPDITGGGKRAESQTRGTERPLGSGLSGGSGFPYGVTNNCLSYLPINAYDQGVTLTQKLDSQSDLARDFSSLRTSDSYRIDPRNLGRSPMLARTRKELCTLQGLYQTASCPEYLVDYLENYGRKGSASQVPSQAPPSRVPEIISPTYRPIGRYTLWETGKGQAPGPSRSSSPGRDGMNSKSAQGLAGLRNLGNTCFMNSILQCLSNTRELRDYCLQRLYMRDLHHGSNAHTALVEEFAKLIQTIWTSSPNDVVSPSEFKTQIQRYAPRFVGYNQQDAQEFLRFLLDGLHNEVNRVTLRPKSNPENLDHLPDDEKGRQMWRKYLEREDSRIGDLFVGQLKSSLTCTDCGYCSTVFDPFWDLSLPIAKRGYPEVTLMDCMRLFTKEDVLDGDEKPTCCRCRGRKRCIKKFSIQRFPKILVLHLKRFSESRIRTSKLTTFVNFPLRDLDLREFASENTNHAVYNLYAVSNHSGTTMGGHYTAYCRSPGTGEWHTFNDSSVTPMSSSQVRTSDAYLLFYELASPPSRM

LS174T [5] = test: Antiproliferative activity against human LS174T cells assessed as cell growth inhibition incubated for 3 days by SRB assay; format: functional, cell-based; conditions: 72 h
[6] = molecular target: Ubiquitin carboxyl-terminal hydrolase 7 (Homo sapiens) (UniProt Q93009); test: Inhibition of USP7 (208 to 560 residues) (unknown origin) expressed in Escherichia coli BL21 (DE3) using Ub-AMC as substrate at 5 uM by fluorescence based analysis
HCT-116 = test: Antiproliferative activity against human HCT-116 cells assessed as cell growth inhibition incubated for 3 days by SRB assay; format: functional, cell-based; conditions: HCT-116, 72 h

Sequence of Ubiquitin carboxyl-terminal hydrolase 7 (Homo sapiens) (Q93009 whole entry, looked up, the tested form may be a part): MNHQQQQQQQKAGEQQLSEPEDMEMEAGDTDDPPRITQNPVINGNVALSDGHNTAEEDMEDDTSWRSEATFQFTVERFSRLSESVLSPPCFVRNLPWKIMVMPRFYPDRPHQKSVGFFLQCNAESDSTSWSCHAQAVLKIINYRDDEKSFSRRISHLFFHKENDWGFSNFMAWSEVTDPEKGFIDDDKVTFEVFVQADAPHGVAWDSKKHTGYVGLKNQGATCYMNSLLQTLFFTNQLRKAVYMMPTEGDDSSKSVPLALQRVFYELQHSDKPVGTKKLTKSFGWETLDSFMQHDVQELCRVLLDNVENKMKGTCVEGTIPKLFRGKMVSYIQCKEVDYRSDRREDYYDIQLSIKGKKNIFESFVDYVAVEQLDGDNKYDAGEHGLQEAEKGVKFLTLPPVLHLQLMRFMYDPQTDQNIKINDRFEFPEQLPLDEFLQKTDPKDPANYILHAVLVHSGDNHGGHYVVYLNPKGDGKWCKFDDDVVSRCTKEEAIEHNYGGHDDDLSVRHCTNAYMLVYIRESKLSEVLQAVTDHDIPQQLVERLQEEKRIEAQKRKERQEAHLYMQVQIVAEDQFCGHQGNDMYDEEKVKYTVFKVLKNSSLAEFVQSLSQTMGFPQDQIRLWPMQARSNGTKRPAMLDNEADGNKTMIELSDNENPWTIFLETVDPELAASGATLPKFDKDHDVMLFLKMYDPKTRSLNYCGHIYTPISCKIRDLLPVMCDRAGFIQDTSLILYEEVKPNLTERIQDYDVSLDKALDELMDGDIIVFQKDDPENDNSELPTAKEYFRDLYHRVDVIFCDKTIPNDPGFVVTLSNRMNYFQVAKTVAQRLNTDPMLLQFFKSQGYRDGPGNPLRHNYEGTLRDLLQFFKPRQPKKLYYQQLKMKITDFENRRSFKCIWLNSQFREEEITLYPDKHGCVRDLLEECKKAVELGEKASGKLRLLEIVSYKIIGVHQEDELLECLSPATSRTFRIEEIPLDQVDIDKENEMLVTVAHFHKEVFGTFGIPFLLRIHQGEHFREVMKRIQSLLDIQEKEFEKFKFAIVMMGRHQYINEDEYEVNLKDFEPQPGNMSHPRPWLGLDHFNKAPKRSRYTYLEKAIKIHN

inhibition [1] | IC50 [3] [µM] | inhibition [4] | inhibition [6] | IC50 (HCT-116) [µM] | Structure (SMILES) | Activity (LS174T [2]) | IC50 (LS174T [5]) [µM]
Active | 0.1 | Active | Active | 24.2 | CS(=O)(=O)c1ccc(C(=O)Nc2ccc(Cl)c(-c3ccc4c(c3)CCNC4)c2)c(Cl)c1 | inactive | 19.9
Active | 0.3 | Active | Active | 26 | CS(=O)(=O)c1ccc(C(=O)Nc2ccc(Cl)c(-c3ccc(C4(N)CC4)cc3)c2)c(Cl)c1 | inactive | 21.9
Active | 0.04 | Active | Active | 38.1 | CS(=O)(=O)c1ccc(C(=O)Nc2ccc(Cl)c(-c3ccc4c(c3)CNC4)c2)c(Cl)c1 | inactive | 24.3
